Experimental data from patent US20230365542A1, “Selective Agonists of 5-HT2A Receptor and Methods of Use” (Yale University, priority 2020, published 2023).
pEC50, pKi: −log10 of the molar value. Where two headings read alike, the source gives them in different places.

Experiments:
[1] = target: T1, 5-HT2BR (Homo sapiens, UniProt P41595); assay: Calcium flux assay (FLIPR, Fluo-4), 5-HT2BR stable cell line; type: cell-based; conditions: for pEC50: read-out: 5-HT2BR EC50; for 5-HT2BR Rmax ± S.E.M: value in parentheses; for EC50: bracketed value below EC50, read-out: 5-HT2BR pEC50 ± S.E.M (converted)
T1 construct: expressed in transfected cells; host or cells: Flp-In 293 T-Rex (tetracycline inducible)
Experimental: Stable cell lines for 5-HT2AR, 5-HT2BR and 5-HT2CR generated using the Flp-In 293 T-Rex Tetracycline inducible system (Invitrogen). Tetracycline-induced cells were seeded in 384-well poly-L-lysine plates at a density of 10,000 cells/well in DMEM containing 1% dialyzed FBS at least 16-24 hr before the calcium flux assay. On the day of the assay, the cells were incubated (20 ul/well) for 1 hr at 37° C. with Fluo-4 Direct dye (Invitrogen) reconstituted in FLIPR buffer (1×HBSS, 2.5 mM probenecid, and 20 mM HEPES, pH 7.4). After dye loading, cells were placed in a FLIPR^TETRA fluorescence imaging plate reader ([…]). Drug dilutions were prepared at 3× final concentration in drug buffer (1×HBSS, 20 mM HEPES, 0.1% BSA, 0.01% ascorbic acid, pH 7.4) and aliquoted into 384-well plates and placed in the FLIPR^TETRA for drug stimulation. The fluidics module and plate reader of the FLIPR^TETRA were programmed to read baseline fluorescence for 10s (1 read/s), then 10 ul of drug/well was added and read for 5 min (1 read/s). Fluorescence in each well was normalized to the average of the first 10 reads (i.e., baseline fluorescence). Then, the maximum-fold increase, which occurred within the first 60 s after drug addition, was determined and fold over baseline was plotted as a function of drug concentration. Data were normalized to % 5-HT stimulation and analyzed using “log(agonist) vs. response” in GraphPad Prism 9.0.

[2] = target: T1, 5-HT2BR; assay: 5-HT2BR binding affinity (Ki), Table 8; conditions: for pKi: read-out: 5-HT2BR Ki; for Ki: bracketed value below Ki, read-out: 5-HT2BR pKi ± S.E.M (converted)
[3] = target: T2, 5-HT2AR (Homo sapiens, UniProt P28223); assay: Calcium flux assay (FLIPR, Fluo-4), 5-HT2AR stable cell line; type: cell-based; conditions: for pEC50: read-out: 5-HT2AR EC50; for 5-HT2AR Rmax ± S.E.M: value in parentheses; for EC50: bracketed value below EC50, read-out: 5-HT2AR pEC50 ± S.E.M (converted)
T2 construct: expressed in transfected cells; host or cells: Flp-In 293 T-Rex (tetracycline inducible)
Experimental: Stable cell lines for 5-HT2AR, 5-HT2BR and 5-HT2CR generated using the Flp-In 293 T-Rex Tetracycline inducible system (Invitrogen). Tetracycline-induced cells were seeded in 384-well poly-L-lysine plates at a density of 10,000 cells/well in DMEM containing 1% dialyzed FBS at least 16-24 hr before the calcium flux assay. On the day of the assay, the cells were incubated (20 ul/well) for 1 hr at 37° C. with Fluo-4 Direct dye (Invitrogen) reconstituted in FLIPR buffer (1×HBSS, 2.5 mM probenecid, and 20 mM HEPES, pH 7.4). After dye loading, cells were placed in a FLIPR^TETRA fluorescence imaging plate reader (Molecular Dynamics). Drug dilutions were prepared at 3× final concentration in drug buffer (1×HBSS, 20 mM HEPES, 0.1% BSA, 0.01% ascorbic acid, pH 7.4) and aliquoted into 384-well plates and placed in the FLIPR^TETRA for drug stimulation. The fluidics module and plate reader of the FLIPR^TETRA were programmed to read baseline fluorescence for 10s (1 read/s), then 10 ul of drug/well was added and read for 5 min (1 read/s). Fluorescence in each well was normalized to the average of the first 10 reads (i.e., baseline fluorescence). Then, the maximum-fold increase, which occurred within the first 60 s after drug addition, was determined and fold over baseline was plotted as a function of drug concentration. Data were normalized to % 5-HT stimulation and analyzed using “log(agonist) vs. response” in GraphPad Prism 9.0.

[4] = target: T2, 5-HT2AR; assay: 5-HT2AR binding affinity (Ki), Table 8; conditions: for pKi: read-out: 5-HT2AR Ki; for Ki: bracketed value below Ki, read-out: 5-HT2AR pKi ± S.E.M (converted)
[5] = target: T3, 5-HT2CR (Homo sapiens, UniProt P28335); assay: 5-HT2CR binding affinity (Ki), Table 8; conditions: read-out: 5-HT2CR Ki
T3 sequence (P28335 33-458): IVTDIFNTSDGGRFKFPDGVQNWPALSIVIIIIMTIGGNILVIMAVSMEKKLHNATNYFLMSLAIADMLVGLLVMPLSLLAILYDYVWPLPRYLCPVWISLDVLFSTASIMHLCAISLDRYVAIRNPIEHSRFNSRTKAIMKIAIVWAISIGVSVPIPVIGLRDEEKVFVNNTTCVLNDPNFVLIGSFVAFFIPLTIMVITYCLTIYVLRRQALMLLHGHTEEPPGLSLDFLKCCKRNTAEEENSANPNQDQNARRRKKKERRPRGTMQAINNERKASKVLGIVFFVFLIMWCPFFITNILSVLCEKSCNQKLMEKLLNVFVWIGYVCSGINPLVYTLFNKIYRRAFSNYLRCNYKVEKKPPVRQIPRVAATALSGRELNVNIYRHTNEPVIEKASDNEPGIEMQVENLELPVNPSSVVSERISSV

T2 sequence (P28223 whole entry): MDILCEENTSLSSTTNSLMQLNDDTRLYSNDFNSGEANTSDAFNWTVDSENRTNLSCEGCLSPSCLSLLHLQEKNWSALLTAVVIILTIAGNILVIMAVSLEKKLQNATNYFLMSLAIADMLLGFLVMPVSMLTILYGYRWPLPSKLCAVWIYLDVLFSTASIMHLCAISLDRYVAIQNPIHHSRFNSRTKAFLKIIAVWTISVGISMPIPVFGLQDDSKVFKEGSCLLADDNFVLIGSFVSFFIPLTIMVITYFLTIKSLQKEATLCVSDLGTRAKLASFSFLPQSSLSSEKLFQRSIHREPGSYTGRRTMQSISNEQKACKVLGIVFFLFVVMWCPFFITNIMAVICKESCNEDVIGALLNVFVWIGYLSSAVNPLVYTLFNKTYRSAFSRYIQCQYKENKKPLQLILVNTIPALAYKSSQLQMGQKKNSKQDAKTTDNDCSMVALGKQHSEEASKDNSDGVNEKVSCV
T1 sequence (P41595 whole entry): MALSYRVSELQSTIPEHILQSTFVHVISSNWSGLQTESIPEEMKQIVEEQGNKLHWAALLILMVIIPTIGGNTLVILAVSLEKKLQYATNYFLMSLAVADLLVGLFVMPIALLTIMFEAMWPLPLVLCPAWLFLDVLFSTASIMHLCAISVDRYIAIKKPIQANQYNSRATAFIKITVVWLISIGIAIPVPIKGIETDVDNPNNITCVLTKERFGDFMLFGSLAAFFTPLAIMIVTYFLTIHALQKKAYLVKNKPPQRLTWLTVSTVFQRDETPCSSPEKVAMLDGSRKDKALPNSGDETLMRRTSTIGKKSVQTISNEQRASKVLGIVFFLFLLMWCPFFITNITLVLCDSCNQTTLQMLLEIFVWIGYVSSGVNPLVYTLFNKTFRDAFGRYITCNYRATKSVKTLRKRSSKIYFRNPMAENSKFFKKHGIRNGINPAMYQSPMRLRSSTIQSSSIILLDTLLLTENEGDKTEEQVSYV

For `CC1C=C(c2cnn(C)c2)CN(CC2(C)COC2)C1` (racemic) [Compound 1, 3-Methyl-5-(1-methyl-1H-pyrazol-4-yl)-1-((3-methyloxetan-3-yl)methyl)-1,2,3,6-tetrahydropyridine], the pEC50 [1] was 5.71, the “5-HT2BR Rmax ± S.E.M” value [1] was 48.9% and the pKi [2] was 5.41.
`CCc1cncn1CCN1CC(c2cccn2C)=CC(C)C1` (racemic) [Compound 2, 1-(2-(5-Ethyl-1H-imidazol-1-yl)ethyl)-3-methyl-5-(1-methyl-1H-pyrrol-2-yl)-1,2,3,6-tetrahydropyridine] was tested, and the pEC50 [1] was 5.53, the “5-HT2BR Rmax ± S.E.M” value [1] was 56.3% and the “5-HT2AR EC50” value [3] was “antagonist”. For the same compound, the pKi [2] was 5.57 and the pKi [4] was 5.21.
In the case of `CCCCCN1CC(c2cnn(C)c2)=CC(C)C1` (racemic) [Compound 3, 3-Methyl-5-(1-methyl-1H-pyrazol-4-yl)-1-pentyl-1,2,3,6-tetrahydropyridine], the “5-HT2BR EC50” value [1] was “antagonist”, the pEC50 [3] was under 5.00 and the pKi [2] was 5.83.
With `Cc1cncc(C2=CC(C)CN(CC3(O)COC3)C2)c1` (racemic) [Compound 4, 3-((5,5′-Dimethyl-5,6-dihydro-[3,3′-bipyridin]-1(2H)-yl)methyl)oxetan-3-ol] the “5-HT2BR EC50” value [1] was “antagonist” and the pKi [2] was 6.17.
In the case of `Cc1cncc(C2=C[C@H](C)CN(CC3(O)COC3)C2)c1` (stereo in doubt) [Compound 6, 3-((5,5′-Dimethyl-5,6-dihydro-[3,3′-bipyridin]-1(2H)-yl)methyl)oxetan-3-ol], the pKi [5] was under 5.00, the EC50 [1] was 115 nM and the pEC50 [1] was 6.92. The “5-HT2BR Rmax ± S.E.M” value [1] was “(16.0%”, the Ki [2] was 245 nM and the pKi [4] was under 5.00.
`CCCCN1CC(c2cncc(C)c2)=C[C@H](C)C1` (stereo in doubt) [Compound 14, 1-Butyl-5,5′-dimethyl-1,2,5,6-tetrahydro-3,3′-bipyridine] was tested, and the pKi [5] was under 5.00, the EC50 [1] was 28.2 nM and the “5-HT2BR Rmax ± S.E.M” value [1] was “(71.7%”. For the same compound, the pEC50 [3] was 5.74, the “5-HT2AR Rmax ± S.E.M” value [3] was “(57.3%” and the Ki [2] was 30.9 nM. The pKi [2] was 7.52 and the pKi [4] was under 5.00.
In the case of `C[C@@H]1C=C(c2cncc(Cl)c2)CN(C)C1` (stereo in doubt) [Compound 17, 5′-chloro-1,5-dimethyl-1,2,5,6-tetrahydro-3,3′-bipyridine], the pKi [5] was under 5.00, the EC50 [1] was 26.9 nM and the “5-HT2BR Rmax ± S.E.M” value [1] was “(42.1%”. The EC50 [3] was 347 nM, the “5-HT2AR Rmax ± S.E.M” value [3] was “(14.9%” and the Ki [2] was 30.2 nM. It also gave a pKi [4] of 5.68.
In the case of `C[C@H]1C=C(c2cncc(Cl)c2)CN(C)C1` (stereo in doubt) [Compound 18, 5′-chloro-1,5-dimethyl-1,2,5,6-tetrahydro-3,3′-bipyridine], the pKi [5] was under 5.00, the “5-HT2BR EC50” value [1] was “antagonist” and the pEC50 [3] was 6.06. For the same compound, the “5-HT2AR Rmax ± S.E.M” value [3] was “(13.7%”, the Ki [2] was 138 nM and the Ki [4] was 3160 nM. The pKi [4] was 5.49.
In the case of `Cc1cncc(C2=C[C@@H](C)CN(CC3(O)COC3)C2)c1` [Compound 5, 3-((5,5′-Dimethyl-5,6-dihydro-[3,3′-bipyridin]-1(2H)-yl)methyl)oxetan-3-ol], the pKi [5] was under 5.00, the “5-HT2BR EC50” value [1] was “antagonist” and the Ki [2] was 3240 nM. The pKi [4] was under 5.00.
With `C[C@@H]1C=C(c2cncc(Cl)c2)CN(CC2(O)COC2)C1` [Compound 7, 3-((5′-Chloro-5-methyl-5,6-dihydro-[3,3′-bipyridin]-1(2H)-yl)methyl)oxetan-3-ol] the pKi [5] was under 5.00, the “5-HT2BR EC50” value [1] was “antagonist” and the pEC50 [3] was under 5.00. The pKi [2] was 6.02 and the pKi [4] was under 5.00.
For `C[C@H]1C=C(c2cncc(Cl)c2)CN(CC2(O)COC2)C1` [Compound 8, 3-((5′-Chloro-5-methyl-5,6-dihydro-[3,3′-bipyridin]-1(2H)-yl)methyl)oxetan-3-ol], the pKi [5] was under 5.00, the EC50 [1] was 126 nM and the “5-HT2BR Rmax ± S.E.M” value [1] was “(20.4%”. It also gave a Ki [2] of 79.4 nM and a pKi [4] of under 5.00.
In the case of `CCCCCN1CC(c2cncc(Cl)c2)=C[C@@H](C)C1` [Compound 9, 5′-chloro-5-methyl-1-pentyl-1,2,5,6-tetrahydro-3,3′-bipyridine], the pKi [5] was under 5.00, the “5-HT2BR EC50” value [1] was “antagonist” and the EC50 [3] was 7760 nM. For the same compound, the pEC50 [3] was 5.12, the “5-HT2AR Rmax ± S.E.M” value [3] was “(40.2%” and the Ki [2] was 550 nM. The pKi [2] was 6.25 and the pKi [4] was under 5.00.
`CCCCN1CC(c2cncc(Cl)c2)=C[C@@H](C)C1` [Compound 11, 1-butyl-5′-chloro-5-methyl-1,2,5,6-tetrahydro-3,3′-bipyridine] was tested, and the pKi [5] was under 5.00, the “5-HT2BR EC50” value [1] was “antagonist” and the pEC50 [3] was 5.37. For the same compound, the “5-HT2AR Rmax ± S.E.M” value [3] was “(25.0%”, the Ki [2] was 372 nM and the pKi [4] was under 5.00.
For `CCCCN1CC(c2cncc(Cl)c2)=C[C@H](C)C1` [Compound 12, 1-butyl-5′-chloro-5-methyl-1,2,5,6-tetrahydro-3,3′-bipyridine], the pKi [5] was under 5.00, the EC50 [1] was 22.9 nM and the “5-HT2BR Rmax ± S.E.M” value [1] was “(69.6%”. For the same compound, the EC50 [3] was 427 nM, the “5-HT2AR Rmax ± S.E.M” value [3] was “(53.0%” and the Ki [2] was 7.08 nM. It also gave a pKi [4] of 5.34.
`CCCCN1CC(c2cncc(C)c2)=C[C@@H](C)C1` [Compound 13, 1-Butyl-5,5′-dimethyl-1,2,5,6-tetrahydro-3,3′-bipyridine] was tested, and the pKi [5] was under 5.00, the “5-HT2BR EC50” value [1] was “antagonist” and the pEC50 [3] was under 5.00. It also gave a pKi [2] of 6.24 and a pKi [4] of under 5.00.
With `CCCN1CC(c2cncc(Cl)c2)=C[C@@H](C)C1` [Compound 15, 5′-Chloro-5-methyl-1-propyl-1,2,5,6-tetrahydro-3,3′-bipyridine] the pKi [5] was under 5.00, the EC50 [1] was 123 nM and the pEC50 [1] was 6.89. For the same compound, the “5-HT2BR Rmax ± S.E.M” value [1] was “(50.9%”, the pEC50 [3] was 5.30 and the “5-HT2AR Rmax ± S.E.M” value [3] was “(42.1%”. The Ki [2] was 148 nM and the pKi [4] was under 5.00.
`C[C@@H]1C=C(c2cncc(Cl)c2)CN(CCC2CCCC2)C1` [Compound 19, 5′-chloro-1-(2-cyclopentylethyl)-5-methyl-1,2,5,6-tetrahydro-3,3′-bipyridine] was tested, and the pKi [5] was under 5.00, the “5-HT2BR EC50” value [1] was “antagonist” and the pEC50 [3] was 5.37. For the same compound, the “5-HT2AR Rmax ± S.E.M” value [3] was “(34.9%”, the pKi [2] was 6.24 and the pKi [4] was under 5.00.
`C[C@H]1C=C(c2cncc(Cl)c2)CN(CCC2CCCC2)C1` [Compound 20, 5′-chloro-1-(2-cyclopentylethyl)-5-methyl-1,2,5,6-tetrahydro-3,3′-bipyridine] was tested, and the pKi [5] was under 5.00, the pEC50 [1] was 7.07 and the “5-HT2BR Rmax ± S.E.M” value [1] was “(66.2%”. The pEC50 [3] was 6.27, the “5-HT2AR Rmax ± S.E.M” value [3] was “(49.1%” and the Ki [2] was 10.7 nM. The pKi [4] was 5.36.
With `CCCCN1CC(c2c[nH]c3ncccc23)=C[C@@H](C)C1` [Compound 21, 3-(1-butyl-5-methyl-1,2,5,6-tetrahydropyridin-3-yl)-1H-pyrrolo[2,3-b]pyridine] the pKi [5] was under 5.00, the “5-HT2BR EC50” value [1] was “antagonist” and the pEC50 [3] was 5.67. The “5-HT2AR Rmax ± S.E.M” value [3] was “(12.8%”, the Ki [2] was 4570 nM and the pKi [2] was 5.53. For the same compound, the pKi [4] was 5.66.
In the case of `CCCN1CC(c2c[nH]c3ncccc23)=C[C@@H](C)C1` [Compound 23, 3-(5-methyl-1-propyl-1,2,5,6-tetrahydropyridin-3-yl)-1H-pyrrolo[2,3-b]pyridine], the pKi [5] was under 5.00, the “5-HT2BR EC50” value [1] was “antagonist” and the EC50 [3] was 245 nM. For the same compound, the “5-HT2AR Rmax ± S.E.M” value [3] was “(65.6%”, the Ki [2] was 1660 nM and the pKi [2] was 5.79. It also gave a Ki [4] of 1200 nM and a pKi [4] of 5.91.
In the case of `C[C@H]1C=C(c2c[nH]c3ncccc23)CNC1` [compound 39, (S)-3-(5-methyl-1,2,5,6-tetrahydropyridin-3-yl)-1H-pyrrolo[2,3-b]pyridine], the pEC50 [1] was 5.91, the “5-HT2BR Rmax ± S.E.M” value [1] was “(26.8%” and the EC50 [3] was 513 nM. The pEC50 [3] was 6.28, the “5-HT2AR Rmax ± S.E.M” value [3] was “(14.0%” and the pKi [2] was 5.74.
